The results in this text go back to US20260132103A1, “Bumetanide Derivatives for the Therapy of Stroke and Other Neurological Diseases/Disorders Involving NKCCs” (University of Pittsburgh - Of the Commonwealth System of …, priority 2018, published 2026).

Common to all, as to type: in vivo, mouse
Data set [1] deals with transient focal cerebral ischemia (tMCAO) in mice. The data set can be described thus: Brain infarct volume and swelling after transient focal cerebral ischemia (tMCAO). The following applies: 24 h reperfusion, i.p.; for hemispheric edema (hemisphere swelling) / infarct volume: normotensive C57BL/6j mice, half dose at 3 h and 8 h reperfusion, BMT 10, STS5 13, STS66 12 mg/kg/day, mean±SD; for infarct volume: male and female combined. As for the experimental part:
(§1) FIGS. 1A-1C: Efficacy of NKCC1 inhibitors in reducing ischemic infarction, cerebral edema, and the post-stroke survival in normotensive mice after tMCAO (see Example 3). (1A) Experimental protocol and data collection. Transient middle cerebral artery occlusion (tMCAO) was induced in normal C57/b6 mice. DMSO, BMT (10 mg/kg body weight), STS5 (13 mg/kg) or STS66 (12 mg/kg) was administered via intraperitoneal injection (i.p.) as described in method. (1 B) Representative TTC staining images in normotensive mice at 24 h reperfusion with quantitative analysis of infarct volume. Data are mean±SD, n=6-13 (male, n=3-9; female, n=3-4, *p<0.05). Scale: 5 mm. (1C) Percentage hemisphere swelling at 24 h reperfusion. Data are mean±SD, n=6-13, *p<0.05. (1D) Body weight change during 1-14 days after tMCAO. Data are mean±SD, n=5-9 (male, n=4; female, n=2, *p<0.05). (1E) Survival curve during 1-14 day after tMCAO. Data are mean±SD, n=5-9 (male, n=3-7; female, n=2, *p<0.05).
(§2) Transient focal cerebral ischemia was induced in mice by intraluminal occlusion of the left middle cerebral artery (MCA) for 50 min as described previously (Chen H et al., 2005). Mice were anesthetized with 3% isoflurane in 70%: 30% N2O/O2 until they were unresponsive to the tail pinch test. Animals were then fitted with a nose cone blowing 1.5% isoflurane for anesthesia maintenance. The left common carotid artery was exposed and the occipital artery branches of the external carotid artery were isolated and coagulated. The internal carotid artery was isolated and the extracranial branch was dissected and ligated. A rubber silicon-coated monofilament suture (6-0) was introduced into the internal carotid artery lumen and gently advanced approximately 8-9 mm to block the MCA blood flow for 50 min. The rectal temperature was maintained at 37.0±0.5° C. during surgery through a temperature-controlled heating pad. Achievement of ischemia was confirmed by monitoring regional cerebral blood flow (rCBF) with laser speckle contrast imager (Pericam). For reperfusion, the suture was withdrawn after the MCAO. The incision was closed and the mouse recovered under a heating lamp to maintain the core temperature (36.0-37.0° C.) during the 30-60 min recovery period. After recovery, animals were returned to their cages with free access to food and water.
(§3) Vehicle: DMSO (2 ml/kg body weight/day), the NKCC1 inhibitor bumetanide (BMT, 10 mg/kg body weight/day in DMSO), bumetanide's prodrug STS5 (13 mg/kg body weight/day in DMSO), or the novel NKCC1 inhibitor STS66 according to the invention (12 mg/kg body weight/day in DMSO) was administered via intraperitoneal injection (i.p). The initial half dose of the drugs (BMT, STS5, STS66) was given at 3 h after the onset of reperfusion and the second half dose at 8 h reperfusion in the tMCAO model.
At 24 h post-reperfusion, mice were anesthetized with 5% isoflurane and then decapitated. Coronal brain slices (2 mm thickness) were stained with 1% 2,3,5-triphenyltetrazolium chloridemonohydrate (TTC) for 20-30 min and brain slices were scanned (Begum G et al., 2015). Ischemic lesions were traced in each slice in a blinded manner, and the total volume of infarction was calculated with correction for edema, as described by Swanson et al., 1990 using ImageJ software. Infarct areas were summed across all slices and multiplied by slice thickness to yield total infarct volume (mm^3). Brain swelling was determined with the following formula. For tMCAO: swelling (% contralateral hemispheric volume)=[(ipsilateral hemispheric volume)−(contralateral hemispheric volume)]/(contralateral hemispheric volume)×100, as described before (Guo Q G et al., 2009; Sunghee Cho et al., 2005).

Data set [2] has the same test system. The data set can be described thus: Adhesive tape removal test after tMCAO. Conditions: days not given (tests on days 1-14); for adhesive tape removal time, last value of the span: end of the span 'x to y'; for adhesive tape removal time, first value of the given span: start of the span 'x to y'.
Source text: (§4) FIGS. 2A-2D: Efficacy of NKCC1 inhibitors on improving neurological function in mice after tMCAO (see Example 3). (A) Neurological score, (B) corner test, (C) foot-fault test, and (D)-(E) adhesive tape test during 1-14 day after tMCAO. Data are mean±SD, n=4-9. *p<0.05 for DMSO vs STS66, **p<0.05 for DMSO vs STS5, ***p<0.05 for DMSO vs BMT, #p<0.05 for BMT vs STS66, ###p<0.05 for STS5 vs STS66.
as §2, §3
An adhesive tape removal test was used to measure somatosensory deficits. Two pieces of adhesive tape (4 mm×3 mm) were attached to the forepaws in an alternating sequence and with equal pressure by the experimenter before each trial. The removal time is defined as the time at which the animal removes the tape. The trial ended after the adhesive patch was removed or after 2 min had elapsed. Pre-operative training was carried twice per day for three days and were tested on day 1, 2, 3, 5, 7, 10 and 14 days after tMCAO (Bouet V, et al., 2009).

Data set [3] has the same test system. The data set can be described thus: Body weight and survival 1-14 days after tMCAO. The following applies: for body weight changes: 1-14 days after tMCAO, versus DMSO Veh control; for mortality rate: between 1-14 days post tMCAO, BMT 10, STS5 13, STS66 12 mg/kg/day i.p. Here is the method:
as §1, §2, §3

For data set [4] the test system is unchanged. The data set can be described thus: Neurological function tests (sensorimotor deficits) after tMCAO. Conditions: normotensive mice, 1-14 days monitor and behavior test after stroke.
Source text: as §4
Transient focal cerebral ischemia was induced in mice by intraluminal occlusion of the left middle cerebral artery (MCA) for 50 min as described previously (Chen H et al., 2005). Mice were anesthetized with 3% isoflurane in 70%: 30% N2O/O2 until they were unresponsive to the tail pinch test. Animals were then fitted with a nose cone blowing 1.5% isoflurane for anesthesia maintenance. The left common carotid artery was exposed and the occipital artery branches of the external carotid artery were isolated and coagulated. […]
Neurological functional deficits in mice were assessed in a blinded manner with the following tests: neurological score, adhesive tape removal test, corner test, cylinder test, and grid walking foot-fault test. These tests are established for identifying and quantifying sensorimotor deficits and postural asymmetries (Bederson J B, et al., 1986; Zhang L, et al., 2002; Schaar K L, et al., 2010).

Data set [5] has the same test system. The data set can be described thus: Neurological score after tMCAO.
Source text: as §4, §2, §3
Neurological deficit grading system was used to evaluate neurological deficit at 1, 2, 3, 5, 7, 10 and 14 days after tMCAO as described previously (Bederson J B et al,1986).

For `CCCCNc1cc(C(=O)O)cc(S(N)(=O)=O)c1Oc1ccccc1` [BMT, 3-(butylamino)-4-phenoxy-5-sulfamoylbenzoic acid, reference compound], in data set [1], the “hemispheric edema (hemisphere swelling)” value came to 15.4±5.9% and the infarct volume was 65.2±21.7 mm^3. Moreover, in data set [2], the “adhesive tape removal time, last value of the span” value was 17.4 ± 7.6 s and the “adhesive tape removal time, first value of the given span” value was determined as 109.4 ± 10.8 s. Besides, in data set [3], the body weight changes result is given as “no differences in the body weight changes” and the mortality rate is given as roughly 16.7%. In data set [4], the sensorimotor deficits entry is on record as “improved all sensorimotor deficits”. This molecule gave a neurological deficit score in data set [5] (day 5) of 3.8±0.4. For the same molecule, in data set [5] (day 10), the neurological deficit score worked out at 2.5±0.5.

Turning to `CCCCNc1cc(CNCC(F)(F)F)cc(S(N)(=O)=O)c1Oc1ccccc1` [STS66, 3-(Butylamino)-2-phenoxy-5-[(2,2,2-trifluoroethylamino)methyl]benzenesulfonamide], in data set [1] (female mice only, STS5 13, STS66 12 mg/kg/day), the “infarct volume in female mice” value turned out to be 74.3±9.2 mm^3. In data set [1], the “hemispheric edema (hemisphere swelling)” value is recorded as 14.1±6.1% and the infarct volume came to 69.7±17.9 mm^3. In addition, in data set [2], the “adhesive tape removal time, last value of the span” value was found to be 10.3 ± 5.2 s and the “adhesive tape removal time, first value of the given span” value came out at 29.7 ± 36.0 s. Further, in data set [3], the body weight changes entry was “no differences in the body weight changes” and the mortality rate result is on record as “none of the STS66-treated mice died”. Also, in data set [4], the sensorimotor deficits entry is “improved all sensorimotor deficits”. This molecule also returned a neurological deficit score in data set [5] (day 1 post-reperfusion) of 4.0±0.0. The molecule further had a neurological deficit score in data set [5] (day 14 post-reperfusion) of 1.2±0.4.
